Data on five compounds can be found in ChEMBL document CHEMBL1122888, “22-Hydroxycholesterol derivatives as HMG CoA reductase suppressors and serum cholesterol lowering agents” (1985).

What is called inhibition is the relative decrease from the control value, in per cent.

Assay [1] relates to Monkey. In words: Evaluated for serum lipoprotein LDL levels in the 14 day treated monkey at dose (10 mg/kg/day, ig) over a 2-week period. In kind it is functional, Cercopithecidae. Also noted: reference not given here.
For assay [2], the target named is T1, 3-hydroxy-3-methylglutaryl-coenzyme A reductase (Homo sapiens) (UniProt P04035).
T1 sequence (whole entry): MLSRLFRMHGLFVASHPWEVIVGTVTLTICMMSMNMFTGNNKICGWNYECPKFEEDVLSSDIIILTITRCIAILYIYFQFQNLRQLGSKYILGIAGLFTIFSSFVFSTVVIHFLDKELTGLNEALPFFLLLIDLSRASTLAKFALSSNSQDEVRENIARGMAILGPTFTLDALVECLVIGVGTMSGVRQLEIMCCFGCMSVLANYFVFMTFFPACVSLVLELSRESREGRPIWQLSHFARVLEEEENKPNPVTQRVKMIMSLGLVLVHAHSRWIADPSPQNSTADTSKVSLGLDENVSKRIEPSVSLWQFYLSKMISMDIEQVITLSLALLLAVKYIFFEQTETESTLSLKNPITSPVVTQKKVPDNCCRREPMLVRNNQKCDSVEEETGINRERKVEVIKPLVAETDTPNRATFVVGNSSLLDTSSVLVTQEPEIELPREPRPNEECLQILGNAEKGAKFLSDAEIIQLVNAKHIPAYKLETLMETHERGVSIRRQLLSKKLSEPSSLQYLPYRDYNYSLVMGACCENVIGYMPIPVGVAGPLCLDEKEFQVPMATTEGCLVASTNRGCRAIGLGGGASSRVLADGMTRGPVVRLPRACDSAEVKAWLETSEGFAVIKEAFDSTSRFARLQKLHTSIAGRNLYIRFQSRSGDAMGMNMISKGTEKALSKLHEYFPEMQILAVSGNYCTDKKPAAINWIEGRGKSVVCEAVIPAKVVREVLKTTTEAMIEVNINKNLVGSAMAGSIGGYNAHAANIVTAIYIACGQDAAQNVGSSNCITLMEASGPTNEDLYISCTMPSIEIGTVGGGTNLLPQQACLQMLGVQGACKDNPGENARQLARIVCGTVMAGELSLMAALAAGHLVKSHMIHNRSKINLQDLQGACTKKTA
As to the kind of experiment: Evaluated in human fibroblast tissue culture assays for suppression of HMG-CoA reductase at concentration of 1 ug/mL.

Assay [3] has as its system HMG-CoA reductase (Rattus norvegicus). In words: Evaluated for the percent suppression of elevated liver HMG-CoA reductase in Diazoesterol treated rats.
The target in assay [4] is T1, 3-hydroxy-3-methylglutaryl-coenzyme A reductase (Homo sapiens). In words: Evaluated for serum cholesterol levels in the 14 day treated rhesus monkeys at dose (10 mg/kg/day, ig) over a 2-week period. It is filed as functional, organism-based. Conditions: Cercopithecidae; target entry is the homologue from another species.
For assay [5], the system named is Monkey. In words: Evaluated for serum lipoprotein HDL levels in the 14 day treated rhesus monkey at dose (10 mg/kg/day, ig) over a 2-week period. It is filed as functional, Cercopithecidae. Also noted: reference not given here.
Assay [6] deals with Monkey. In words: Evaluated for serum cholesterol VLDL levels in the 14 day treated monkey at dose (10 mg/kg/day, ig) over a 2-week period. It is filed as functional, Cercopithecidae.
The species named for assay [7] is Rattus norvegicus. As to the kind of experiment: Minimum effective dose necessary to produce >=25% decrease of elevated liver HMG CoA reductage levels. In kind it is functional. Conditions: read-out: MED.
Assay [8] is filed under the species Rattus norvegicus. In words: Minimum effective dose necessary to produce >=25% decrease of elevated liver HMG CoA reductage levels in diazasterol treated rats. It is filed as functional. Conditions: read-out: MED.
The target in assay [9] is T1, 3-hydroxy-3-methylglutaryl-coenzyme A reductase (Homo sapiens). In words: Evaluated for serum cholesterol levels in the 14 day treated primate (male rhesus monkeys) at dose (10 mg/kg/day, ig) over a 2-week period. It is filed as functional, organism-based. Conditions: Cercopithecidae; target entry is the homologue from another species.

On to `C[C@H](C(O)CCC1CC1)C1CCC2C3CC=C4CC(O)CCC4(C)C3CCC21C` (stereo partly drawn), for which the Lipoprotein level is listed as 23% in assay [1] and 68% in assay [5]. In assay [2], this compound returned an inhibition of more than 95%. The Suppression in assay [3] came out at 30%. In addition, the cholesterol level came out at 179 mg/dL in [4] and 4 mg/dL in assay [6]. For the same compound, in assay [7], the minimal effective dose was found to be 0.5 mg/kg.

For the compound `C[C@H](C(O)CCC(C)(C)F)C1CCC2C3CC=C4CC(O)CCC4(C)C3CCC21C` (stereo partly drawn), the Lipoprotein level in assay [1] is recorded as 25%; in assay [5], 61%. In assay [2], this compound returned an inhibition of more than 95%. This compound registered a Suppression in [3] of 26%. In addition, the cholesterol level in [4] is 150 mg/dL; in assay [6], 8 mg/dL. The minimal effective dose in assay [7] worked out at 0.5 mg/kg.

Regarding `C[C@H](C(O)CCC(C)(C)C)C1CCC2C3CC=C4CC(O)CCC4(C)C3CCC21C` (stereo partly drawn), the Lipoprotein level in assay [1] is 25%; in assay [5] it was 66%. The compound also registered an inhibition in assay [2] of 95%. Moreover, the Suppression in [3] was 39%. Besides, in assay [8], the minimal effective dose turned out to be 0.5 mg/kg. The cholesterol level in assay [6] turned out to be 6 mg/dL; in assay [9], 167 mg/dL.

Turning to `C[C@H](C(O)CCC(C)(C)Cl)C1CCC2C3CC=C4CC(O)CCC4(C)C3CCC21C` (stereo partly drawn), the Lipoprotein level was found to be 22% in [1] and 70% in assay [5]. This compound gave a Suppression in assay [3] of 28%. Besides, the cholesterol level in assay [4] was 168 mg/dL; in [6], 4 mg/dL. Besides, the minimal effective dose in [7] is 0.2 mg/kg.

As to `CC(C)CCC(O)[C@@H](C)[C@H]1CC[C@H]2[C@@H]3CC=C4C[C@@H](O)CC[C@]4(C)[C@H]3CC[C@]12C` (stereo partly drawn), the minimal effective dose in assay [7] was more than 30 mg/kg.
